{"source": "patent US20100137399A1", "about": "“PREVENTIVE AND/OR THERAPEUTIC AGENT FOR URINE COLLECTION DISORDER ACCOMPANYING LOWER URINARY TRACT OBSTRUCTION” (KISSEI PHARMACEUTICAL CO., LTD., priority 2004, published 2010)", "key": {"[1]": {"tested_on": "patients with urinary disturbance associated with benign prostatic hyperplasia", "test": "Placebo-control parallel groups-comparing double blind clinical trial, I-PSS changes from pre-administration", "format": "in vivo, human", "conditions": "for I-PSS (irritative symptom) Changes / I-PSS (obstructive symptom) Changes / Total I-PSS Changes: oral, 12 weeks", "from_the_text": "Using patients with urinary disturbance associated with benign prostatic hyperplasia as the subjects, the clinical effects of silodosin and tamsulosin hydrochloride were examined by a placebo-control parallel groups-comparing double blind trial, using changes in the total I-PSS (International Prostate Symptom Score) from pre-administration as the primary endpoint. The I-PSS consists of 3 items of irritative symptoms representing the symptoms at the time of storing (Nocturia, Urgency and Urination within 2 hours) and 4 items of obstructive symptoms representing the symptoms at the time of voiding (Sensation of residual urine, Intermittency of urinary stream, Power of urinary stream and Straining during urination), prepared for use in the judgment of various therapeutic effects on the dysuria associated with benign prostatic hyperplasia, but this is not specific to prostatic hyperplasia and can also be used for the judgment of therapeutic effects on female dysuria and the like (Non-patent Reference 1).\nEffects of silodosin (4 mg per once, twice a day) and tamsulosin hydrochloride (0.2 mg per once, once a day) on the storage disorder were examined by the following method.\nPatients to be tested: 455 patients with dysuria associated with benign prostatic hyperplasia\nAdministration method: oral administration for 12 weeks\nPrimary endpoints: total score of I-PSS, I-PSS irritative symptom score and I-PSS obstructive symptom score\nAnalysis method: all of the finally evaluated cases were stratified into groups of patients having a total score of less than 6 and that of 6 or more regarding the “Urination within 2 hours” and “Urgency” of I-PSS, and average values of respective changes in the total score of I-PSS, I-PSS irritative symptom score and I-PSS obstructive symptom score before and after the administration were calculated for each group.\nAdministration groups: silodosin group (116 cases having a pre-administration score of less than 6, and 58 cases having that of 6 or more), tamsulosin group (135 cases having a pre-administration score of less than 6, and 57 cases having that of 6 or more), a placebo group (61 cases having a pre-administration score of less than 6, and 28 cases having that of 6 or more)\nNot at all: 0 point; Less than 1 time in 5: 1 point; Less than 1 time in 2: 2 points; About 1 time in 2: 3 points; More than 1 time in 2: 4 points; Almost always: 5 points.\nNone: 0 point; 1 time: 1 point; 2 times: 2 points; 3 times: 3 points; 4 times: 4 points; 5 times or more: 5 points."}, "α1B-AR subtype": {"target": "T1, α1B-AR subtype (Homo sapiens, UniProt P35368)", "T1 sequence (P35368 1-520)": "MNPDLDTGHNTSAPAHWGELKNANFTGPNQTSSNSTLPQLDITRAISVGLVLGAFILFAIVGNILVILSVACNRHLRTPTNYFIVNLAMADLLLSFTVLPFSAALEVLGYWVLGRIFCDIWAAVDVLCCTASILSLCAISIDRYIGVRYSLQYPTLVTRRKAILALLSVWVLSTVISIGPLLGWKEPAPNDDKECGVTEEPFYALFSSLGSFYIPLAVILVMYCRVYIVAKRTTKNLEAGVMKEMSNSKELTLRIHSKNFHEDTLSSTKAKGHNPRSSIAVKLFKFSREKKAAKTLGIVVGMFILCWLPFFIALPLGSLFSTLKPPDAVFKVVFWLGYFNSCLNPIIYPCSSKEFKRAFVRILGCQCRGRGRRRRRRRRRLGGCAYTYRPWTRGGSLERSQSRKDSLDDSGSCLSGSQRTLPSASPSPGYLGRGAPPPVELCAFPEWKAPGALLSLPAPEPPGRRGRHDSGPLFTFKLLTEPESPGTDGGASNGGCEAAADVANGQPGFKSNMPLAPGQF", "conditions": "Patent Reference 3 and Non-patent Reference 5; cited from earlier work"}, "α1D-AR subtype": {"target": "T2, α1D-AR subtype (Homo sapiens, UniProt P25100)", "T2 sequence (P25100 1-572)": "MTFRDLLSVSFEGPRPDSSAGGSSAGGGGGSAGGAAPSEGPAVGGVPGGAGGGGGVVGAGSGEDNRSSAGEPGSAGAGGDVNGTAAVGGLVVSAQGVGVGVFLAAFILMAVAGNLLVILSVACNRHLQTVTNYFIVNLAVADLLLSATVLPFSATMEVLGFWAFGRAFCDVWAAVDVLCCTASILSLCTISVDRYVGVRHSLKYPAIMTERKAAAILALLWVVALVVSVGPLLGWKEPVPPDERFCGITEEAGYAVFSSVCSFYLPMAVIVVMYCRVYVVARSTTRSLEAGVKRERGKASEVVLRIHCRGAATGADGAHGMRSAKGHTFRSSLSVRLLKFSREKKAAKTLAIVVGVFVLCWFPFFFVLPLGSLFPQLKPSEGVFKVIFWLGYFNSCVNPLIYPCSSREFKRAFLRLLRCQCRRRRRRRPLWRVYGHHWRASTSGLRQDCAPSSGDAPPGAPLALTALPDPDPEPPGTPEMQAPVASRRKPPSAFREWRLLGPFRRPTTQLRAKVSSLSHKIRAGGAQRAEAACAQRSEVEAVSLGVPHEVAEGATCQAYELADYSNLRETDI", "conditions": "Patent Reference 3 and Non-patent Reference 5; cited from earlier work"}, "α1A-AR subtype": {"target": "T3, α1A-AR subtype (Homo sapiens, UniProt P35348)", "T3 sequence (P35348 1-466)": "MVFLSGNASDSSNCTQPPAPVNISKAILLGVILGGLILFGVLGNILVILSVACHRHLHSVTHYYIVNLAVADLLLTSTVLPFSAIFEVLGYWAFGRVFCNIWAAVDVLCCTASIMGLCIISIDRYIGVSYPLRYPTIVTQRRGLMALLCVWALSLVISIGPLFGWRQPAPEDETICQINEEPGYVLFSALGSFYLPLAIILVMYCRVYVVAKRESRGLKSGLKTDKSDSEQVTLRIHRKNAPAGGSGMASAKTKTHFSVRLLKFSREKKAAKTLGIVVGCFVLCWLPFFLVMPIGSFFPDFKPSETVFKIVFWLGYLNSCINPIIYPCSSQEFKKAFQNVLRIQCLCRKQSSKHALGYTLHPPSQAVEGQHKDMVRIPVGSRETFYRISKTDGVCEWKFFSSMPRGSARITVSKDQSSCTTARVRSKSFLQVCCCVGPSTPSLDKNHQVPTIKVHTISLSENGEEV", "conditions": "Patent Reference 3 and Non-patent Reference 5; cited from earlier work"}, "[2]": {"conditions": "Overall (all patients), average change"}, "[3]": {"conditions": "patients with pre-administration total score of \"Urination within 2 hours\" and \"Urgency\" less than 6, average change before/after administration"}, "[4]": {"conditions": "pre-administration score 6 or more, average change"}, "[5]": {"conditions": "pre-administration score less than 6, average change"}}, "note": "Where a name gives a salt, the structure may show the parent alone.", "data": [{"smiles": "CCOc1ccccc1OCCN[C@H](C)Cc1ccc(OC)c(S(N)(=O)=O)c1", "note": "[Tamsulosin, tamsulosin hydrochloride, reference compound]", "values": [{"measurement": "I-PSS (irritative symptom) Changes", "setting": "[1]; [2]", "result": "−2.1"}, {"measurement": "I-PSS (obstructive symptom) Changes", "setting": "[1]; [2]", "result": "−4.8"}, {"measurement": "Total I-PSS Changes", "setting": "[1]; [2]", "result": "−6.8"}, {"measurement": "Total I-PSS Changes", "setting": "[1]; [3]", "result": "−5.9"}, {"measurement": "I-PSS (irritative symptom) Changes", "setting": "[1]; [4]", "result": "−3.9"}, {"measurement": "I-PSS (obstructive symptom) Changes", "setting": "[1]; [4]", "result": "−5.2"}, {"measurement": "Total I-PSS Changes", "setting": "[1]; [4]", "result": "−9.1"}, {"measurement": "I-PSS (irritative symptom) Changes", "setting": "[1]; [5]", "result": "−1.3"}, {"measurement": "I-PSS (obstructive symptom) Changes", "setting": "[1]; [5]", "result": "−4.6"}]}, {"smiles": "C[C@H](Cc1cc2c(c(C(N)=O)c1)N(CCCO)CC2)NCCOc1ccccc1OCC(F)(F)F", "note": "[Silodosin, (−)-1-(3-hydroxypropyl)-5-((2R)-2-{[2-({2-[(2,2,2-trifluoroethyl)-oxy]phenyl}oxy)ethyl]amino}propyl)2,3-dihydro-1H-indole-7-carboxamide]", "values": [{"measurement": "Action upon α1B-AR subtype (in words)", "setting": "α1B-AR subtype", "result": "hardly acts"}, {"measurement": "I-PSS (irritative symptom) Changes", "setting": "[1]; [2]", "result": "−2.5"}, {"measurement": "I-PSS (obstructive symptom) Changes", "setting": "[1]; [2]", "result": "−5.8"}, {"measurement": "Total I-PSS Changes", "setting": "[1]; [2]", "result": "−8.3"}, {"measurement": "Effect on I-PSS irritative symptom score in patients showing storage disorders (in words)", "setting": "[1]; particularly patients with 6 or more total score of \"Urination within 2 hours\" and \"Urgency\" at pre-administration", "result": "has the effect to improve I-PSS irritative symptom score"}, {"measurement": "Total I-PSS Changes", "setting": "[1]; [3]", "result": "−6.8"}, {"measurement": "I-PSS (irritative symptom) Changes", "setting": "[1]; [4]", "result": "−4.3"}, {"measurement": "I-PSS (obstructive symptom) Changes", "setting": "[1]; [4]", "result": "−7.1"}, {"measurement": "Total I-PSS Changes", "setting": "[1]; [4]", "result": "−11.3"}, {"measurement": "I-PSS (irritative symptom) Changes", "setting": "[1]; [5]", "result": "−1.6"}, {"measurement": "I-PSS (obstructive symptom) Changes", "setting": "[1]; [5]", "result": "−5.2"}, {"measurement": "Action upon α1D-AR subtype (in words)", "setting": "α1D-AR subtype", "result": "hardly acts"}, {"measurement": "Action upon α1A-AR subtype (in words)", "setting": "α1A-AR subtype", "result": "selectively acts"}, {"measurement": "Inverse agonist activity (in words)", "setting": "α1A-AR subtype", "result": "does not show inverse agonist activity"}]}]}
